Values after ≈ are worked out from the molar mass of the structure shown.
Assays:
[1] = target: Receptor tyrosine-protein kinase erbB-2 (Homo sapiens, UniProt P04626);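 note: recombinant His6-tagged human HER-2, autophosphorylation inhibition read by DELFIA time-resolved fluorescence after 10 min preincubation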
Description: Inhibition of human recombinant (His)6-tagged HER-2 autophosphorylation pre-incubated for 10 mins by DELFIA/Time-resolved fluorimetry

B16-F10 = test: Antiproliferative activity against mouse B16-F10 cells after 48 hrs by MTT assay; type: functional, cell-based; conditions: B16-F10, 48 h
[2] = target: Epidermal growth factor receptor (Homo sapiens, UniProt P00533);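 note: recombinant His6-tagged EGFR autophosphorylation, read by DELFIA time-resolved fluorimetry after a 10 min preincubation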
Sequence of Epidermal growth factor receptor (P00533 whole entry): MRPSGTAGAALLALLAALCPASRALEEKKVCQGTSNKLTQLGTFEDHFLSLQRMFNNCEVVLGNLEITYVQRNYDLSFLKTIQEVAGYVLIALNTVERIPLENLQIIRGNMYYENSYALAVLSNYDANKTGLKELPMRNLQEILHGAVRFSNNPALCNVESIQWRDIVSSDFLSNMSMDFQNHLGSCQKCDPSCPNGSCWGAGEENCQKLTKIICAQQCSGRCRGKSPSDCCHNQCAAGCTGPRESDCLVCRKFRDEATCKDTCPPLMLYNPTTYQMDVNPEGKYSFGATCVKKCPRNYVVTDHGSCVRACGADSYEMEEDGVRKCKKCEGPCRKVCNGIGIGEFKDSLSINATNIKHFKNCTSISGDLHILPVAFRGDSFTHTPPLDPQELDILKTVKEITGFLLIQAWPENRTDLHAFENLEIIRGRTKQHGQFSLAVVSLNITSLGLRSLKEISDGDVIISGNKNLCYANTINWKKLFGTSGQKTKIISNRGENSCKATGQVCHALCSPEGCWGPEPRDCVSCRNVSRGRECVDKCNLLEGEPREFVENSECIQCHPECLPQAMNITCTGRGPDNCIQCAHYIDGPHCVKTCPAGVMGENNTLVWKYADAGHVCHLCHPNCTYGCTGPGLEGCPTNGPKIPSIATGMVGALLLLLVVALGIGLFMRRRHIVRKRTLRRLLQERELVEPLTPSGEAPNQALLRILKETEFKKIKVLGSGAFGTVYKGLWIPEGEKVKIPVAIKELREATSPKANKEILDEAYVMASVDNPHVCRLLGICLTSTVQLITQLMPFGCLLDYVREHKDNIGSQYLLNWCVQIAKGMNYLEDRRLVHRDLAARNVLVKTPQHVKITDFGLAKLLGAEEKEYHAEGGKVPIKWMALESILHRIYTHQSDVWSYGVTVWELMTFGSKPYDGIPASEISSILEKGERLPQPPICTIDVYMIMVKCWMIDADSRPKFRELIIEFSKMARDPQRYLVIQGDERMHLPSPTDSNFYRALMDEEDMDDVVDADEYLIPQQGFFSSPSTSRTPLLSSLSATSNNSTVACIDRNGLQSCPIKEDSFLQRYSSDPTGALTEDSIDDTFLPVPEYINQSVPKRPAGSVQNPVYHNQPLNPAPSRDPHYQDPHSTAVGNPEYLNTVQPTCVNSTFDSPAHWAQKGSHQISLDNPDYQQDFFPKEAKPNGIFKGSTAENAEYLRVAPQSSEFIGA
Description: Inhibition of human recombinant (His)6-tagged EGFR autophosphorylation pre-incubated for 10 mins by DELFIA/Time-resolved fluorimetry

A549 = test: Antiproliferative activity against human A549 cells after 48 hrs by MTT assay; type: functional, cell-based; conditions: A549, 48 h

Sequence of Receptor tyrosine-protein kinase erbB-2 (P04626 whole entry): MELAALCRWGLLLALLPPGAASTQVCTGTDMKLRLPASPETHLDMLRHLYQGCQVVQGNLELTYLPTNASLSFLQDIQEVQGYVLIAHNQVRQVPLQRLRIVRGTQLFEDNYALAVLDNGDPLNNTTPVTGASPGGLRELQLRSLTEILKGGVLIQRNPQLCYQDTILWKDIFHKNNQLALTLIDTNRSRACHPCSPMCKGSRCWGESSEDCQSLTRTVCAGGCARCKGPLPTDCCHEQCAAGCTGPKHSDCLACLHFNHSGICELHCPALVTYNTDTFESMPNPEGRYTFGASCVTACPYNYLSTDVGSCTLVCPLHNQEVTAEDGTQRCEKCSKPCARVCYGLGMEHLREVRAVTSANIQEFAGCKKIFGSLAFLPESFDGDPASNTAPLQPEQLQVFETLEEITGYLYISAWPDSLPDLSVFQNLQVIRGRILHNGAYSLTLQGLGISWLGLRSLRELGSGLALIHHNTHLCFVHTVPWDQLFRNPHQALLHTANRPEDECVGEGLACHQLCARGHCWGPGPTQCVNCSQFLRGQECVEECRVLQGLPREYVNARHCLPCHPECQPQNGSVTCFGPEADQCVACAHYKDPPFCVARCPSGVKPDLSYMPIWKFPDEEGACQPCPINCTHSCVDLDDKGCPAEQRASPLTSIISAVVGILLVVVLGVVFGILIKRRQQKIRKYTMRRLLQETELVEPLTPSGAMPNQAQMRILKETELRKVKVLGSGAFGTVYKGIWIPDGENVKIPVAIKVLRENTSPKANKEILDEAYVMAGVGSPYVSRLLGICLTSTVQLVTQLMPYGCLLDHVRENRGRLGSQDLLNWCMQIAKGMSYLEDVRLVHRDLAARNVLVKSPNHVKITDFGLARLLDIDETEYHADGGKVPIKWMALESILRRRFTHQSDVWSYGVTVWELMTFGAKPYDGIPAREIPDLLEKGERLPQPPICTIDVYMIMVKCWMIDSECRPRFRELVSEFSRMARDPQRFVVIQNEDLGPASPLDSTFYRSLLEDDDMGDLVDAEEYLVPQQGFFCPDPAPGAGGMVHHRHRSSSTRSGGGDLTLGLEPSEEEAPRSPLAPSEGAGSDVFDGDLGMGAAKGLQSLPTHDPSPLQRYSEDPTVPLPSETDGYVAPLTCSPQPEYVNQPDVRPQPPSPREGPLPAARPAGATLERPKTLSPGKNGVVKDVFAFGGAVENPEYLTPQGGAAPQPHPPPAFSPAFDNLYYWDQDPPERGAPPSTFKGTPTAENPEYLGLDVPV

SMILES	IC50 [1] [µM]	IC50 (B16-F10) [µg/mL]	IC50 [2] [µM]	IC50 (A549) [µg/mL]
Cc1ccc(S(=O)(=O)NC(=O)Cn2c([N+](=O)[O-])cnc2C)cc1	4.76	3.55 (≈ 10.5 µM)	3.43	4.38 (≈ 12.9 µM)
Cc1ncc([N+](=O)[O-])n1CC(=O)NS(=O)(=O)c1ccc(Cl)cc1	3.41	0.92 (≈ 2.56 µM)	1.51	2.47 (≈ 6.88 µM)
Cc1ccc(S(=O)(=O)NC(=O)Cc2ccc(F)cc2)cc1	10.5	9.94 (≈ 32.3 µM)	8.28	12 (≈ 39.2 µM)
O=C(Cc1ccc(F)cc1)NS(=O)(=O)c1ccc(F)cc1	7.02	4.23 (≈ 13.6 µM)	5.17	5.64 (≈ 18.1 µM)
O=C(Cc1ccc(F)cc1)NS(=O)(=O)c1ccc(Cl)cc1	7.56	6.36 (≈ 19.4 µM)	5.93	6.28 (≈ 19.2 µM)
O=C(Cc1ccc(F)cc1)NS(=O)(=O)c1ccc(Br)cc1	8.18	8.2 (≈ 22 µM)	6.41	7.94 (≈ 21.3 µM)
O=C(Cc1ccc(Cl)cc1)NS(=O)(=O)c1ccccc1	13.1	–	11.9	–
Cc1ccc(S(=O)(=O)NC(=O)Cc2ccc(Cl)cc2)cc1	15.6	–	13.7	–
O=C(Cc1ccc(Cl)cc1)NS(=O)(=O)c1ccc(Cl)cc1	13.3	–	10.3	–
O=C(Cc1ccc(Cl)cc1)NS(=O)(=O)c1ccc(Br)cc1	13.6	–	11.3	–
Cc1ccc(S(=O)(=O)NC(=O)Cc2ccc(Br)cc2)cc1	20.3	–	18.4	–
O=C(Cc1ccc(Br)cc1)NS(=O)(=O)c1ccc(Br)cc1	19.8	–	–	–
COc1ccc(CC(=O)NS(=O)(=O)c2ccccc2)cc1	29.1	–	26.2	–
COc1ccc(CC(=O)NS(=O)(=O)c2ccc(Cl)cc2)cc1	37.9	–	32.9	–
COc1ccc(CC(=O)NS(=O)(=O)c2ccc(Br)cc2)cc1	25	–	24.2	–
O=C(Cc1cccc(Br)c1)NS(=O)(=O)c1ccccc1	26.3	–	24.7	–
O=C(Cc1cccc(Br)c1)NS(=O)(=O)c1ccc(F)cc1	20.4	–	18.7	–
O=C(Cc1cccc(Br)c1)NS(=O)(=O)c1ccc(Cl)cc1	23.5	–	21.3	–
O=C(Cc1cccc(Br)c1)NS(=O)(=O)c1ccc(Br)cc1	27.4	–	24.3	–

The next lines start with the values.

IC50 [1] [µM]	IC50 (B16-F10) [µg/mL]	IC50 [2] [µM]	IC50 (A549) [µg/mL]	SMILES
4.21	–	–	–	Cc1ncc([N+](=O)[O-])n1CC(=O)NS(=O)(=O)c1ccccc1
1.53	0.35 (≈ 1.02 µM)	0.39	1.26 (≈ 3.68 µM)	Cc1ncc([N+](=O)[O-])n1CC(=O)NS(=O)(=O)c1ccc(F)cc1
3.59	2.37 (≈ 5.88 µM)	2.17	3.03 (≈ 7.51 µM)	Cc1ncc([N+](=O)[O-])n1CC(=O)NS(=O)(=O)c1ccc(Br)cc1
8.41	9.07 (≈ 30.9 µM)	6.74	10.1 (≈ 34.5 µM)	O=C(Cc1ccc(F)cc1)NS(=O)(=O)c1ccccc1
11.1	–	9.59	–	O=C(Cc1ccc(Cl)cc1)NS(=O)(=O)c1ccc(F)cc1
19	–	17.8	–	O=C(Cc1ccc(Br)cc1)NS(=O)(=O)c1ccccc1
16.3	–	14.5	–	O=C(Cc1ccc(Br)cc1)NS(=O)(=O)c1ccc(F)cc1
18.9	–	15.9	–	O=C(Cc1ccc(Br)cc1)NS(=O)(=O)c1ccc(Cl)cc1
> 50	–	38.5	–	COc1ccc(CC(=O)NS(=O)(=O)c2ccc(C)cc2)cc1
23.4	–	21.8	–	COc1ccc(CC(=O)NS(=O)(=O)c2ccc(F)cc2)cc1
27.9	–	26.2	–	Cc1ccc(S(=O)(=O)NC(=O)Cc2cccc(Br)c2)cc1

Source: ChEMBL document CHEMBL1828525, “Metronidazole acid acyl sulfonamide: a novel class of anticancer agents and potential EGFR tyrosine kinase inhibitors” (Bioorg Med Chem, 2011)
